Assay results: US8772303B2, “Pharmaceutical formulation” (Glaxo Group Limited, priority 2004, dated 2014)

Legend:
[1] = Measurement of the substituted uracil formula (II) in simulated gastric fluid (hydrolysis of active); type: physicochemical; conditions: for Levels of Formula (II) in simulated gastric fluid: 60 mg active in 250 mL SGF, 37° C., 50 rpm
Excerpt: Compounds of Formula (I) hydrolyse, particularly under conditions where pH corresponds to that typically prevailing in the human stomach, to form a thiol and a uracil in a 1:1 stoichiometric ratio. The thiol has a smell characteristic of compounds of its class, the intensity of the smell increasing with the concentration of the thiol. Thus the concentration of the uracil is a surrogate marker for the intensity of the smell.
To simulate in vitro the effect of enteric-coating on the propensity of 1-(N-(2-(Diethylamino)ethyl)-N-(4-(4-trifluoromethylphenyl)benzyl)aminocarbonylmethyl)-2-(4-fluorobenzyl)thio-5,6-trimethylenepyrimidin-4-one as the free base (called “active” in this example) to give rise to abnormal smells in vivo, a two-armed study was performed. In both arms, 60 mg of active was immersed in 250 mL simulated gastric fluid held at 37° C. and stirred at 50 rpm in a USP2 dissolution apparatus. In one arm, the active was present as an enteric-coated tablet. In the other arm, active was present as the unformulated drug substance, which is chemically equivalent to a tablet lacking an enteric coat.
The uracil produced by the active is N-[2-(diethylamino)ethyl]-2-(2,4-dioxo-2,3,4,5,6,7-hexahydro-1H-cyclopenta[d]pyrimidin-1-yl)-N-{[4′-(trifluoromethyl)-4-biphenylyl]methyl}acetamide, as shown in Formula (II): […]
In both arms, the level of formula (II) in solution was monitored over time, by withdrawing a small sample of the fluid and comparing its LC-MS response to that of a matrix-matched external standard (i.e. synthetic formula (II)).

[2] = Measurement of the substituted uracil formula (II) in simulated intestinal fluid (hydrolysis of active); type: physicochemical; conditions: for Levels of formula (II) in simulated intestinal fluid: 80 mg active in 250 mL fasted-state SIF, 37° C., 50 rpm
Procedure: To simulate in vitro the propensity of active tablets to give rise to abnormal smells in the human intestine, active equivalent to 80 mg was immersed in 250 mL simulated intestinal fluid (corresponding to the fasted state in humans) held at 37° C. and stirred at 50 rpm in a USP2 dissolution apparatus. This is chemically equivalent to a tablet whose enteric coat has been destroyed and whose core has subsequently disintegrated.
The level of formula (II) in solution was monitored over time, by withdrawing a small sample of the fluid and comparing its LC-MS response to that of a matrix-matched external standard (i.e. synthetic formula (II)).

Levels of Formula (II) in simulated gastric fluid ([1]; 0 min, QL 1.71 ng/mL): 6270 ng/mL | Levels of Formula (II) in simulated gastric fluid ([1]; 5 min, QL 1.71 ng/mL): 6570 ng/mL | Levels of Formula (II) in simulated gastric fluid ([1]; 10 min, QL 1.71 ng/mL): 7180 ng/mL | Levels of Formula (II) in simulated gastric fluid ([1]; 15 min, QL 1.71 ng/mL): 7970 ng/mL | Levels of Formula (II) in simulated gastric fluid ([1]; 30 min, QL 1.71 ng/mL): 9270 ng/mL | Levels of Formula (II) in simulated gastric fluid ([1]; 45 min, QL 1.71 ng/mL): 11450 ng/mL | Levels of Formula (II) in simulated gastric fluid ([1]; 60 min): 13110 ng/mL | Levels of Formula (II) in simulated gastric fluid ([1]; 120 min): 18940 ng/mL | Levels of Formula (II) in simulated gastric fluid ([1]; 240 min): 25250 ng/mL | Levels of Formula (II) in simulated gastric fluid ([1]; 480 min): 62910 ng/mL | Levels of Formula (II) in simulated gastric fluid ([1]; 1440 min): 135600 ng/mL | Reduction by the enteric coat of the level of formula (II) formed by active ([1]; simulated gastric fluid, enteric coated tablet versus unformulated drug): 4 orders of magnitude | Levels of formula (II) in simulated intestinal fluid ([2]; 480 min): 2.99 ng/mL | Levels of formula (II) in simulated intestinal fluid ([2]; 1440 min): 8.58 ng/mL | Propensity to form formula (II) in simulated intestinal fluid ([2]; in contrast to behaviour in simulated gastric fluid): low propensity
Compound: CCN(CC)CCN(Cc1ccc(-c2ccc(C(F)(F)F)cc2)cc1)C(=O)Cn1c(SCc2ccc(F)cc2)nc(=O)c2c1CCC2 [Unformulated drug, 1-(N-(2-(Diethylamino)ethyl)-N-(4-(4-trifluoromethylphenyl)benzyl)aminocarbonylmethyl)-2-(4-fluorobenzyl)thio-5,6-trimethylenepyrimidin-4-one]
